# Laboratory results reported in patent US4272437A, “Antibacterial agents, and 4-thio azetidinone intermediates” (priority 1979, dated 1981).
# Experiments:
# Ser. marcescens A-20019 = assay: MIC, tube dilution, Serratia marcescens A20019; type: cell-based; details: overnight 37° C.
# Description: (§1) Representative compounds of the present invention were subjected to in vitro antibiotic screening against a variety of microorganisms.
# Ps. aeruginosa A-21213 = assay: MIC, tube dilution, Pseudomonas aeruginosa A21213; type: cell-based; details: Pseudomonas aeruginosa A21213, overnight 37° C.
# Description: as §1
# [1] = system: Staph. aureus (Pen-Res) A-9606; assay: MIC, tube dilution, Staphylococcus aureus A9606 (Pen-Res); type: cell-based; details: overnight 37° C.
# Description: as §1
# Ent. cloacae A-9659 = assay: MIC, tube dilution, Enterobacter cloacae A9659; type: cell-based; details: overnight 37° C.
# Description: as §1
# Pr. morganii A-15153 = assay: MIC, tube dilution, Proteus morganii A15153; type: cell-based; details: overnight 37° C.
# Description: as §1
# Ent. cloacae A-9656 = assay: MIC, tube dilution, Enterobacter cloacae A9656; type: cell-based; details: Enterobacter cloacae A9656, overnight 37° C.
# Description: as §1
# Ps. aeruginosa A-9843A = assay: MIC, tube dilution, Pseudomonas aeruginosa A9843A; type: cell-based; details: overnight 37° C.
# Description: as §1
# E. coli A-20341-1 = assay: MIC, tube dilution, Escherichia coli A20341-1; type: cell-based; details: E. coli A20341-1, overnight 37° C.
# Description: as §1
# Str. pneumoniae A-9585 = assay: MIC, tube dilution, Streptococcus pneumoniae A9585; type: cell-based; details: overnight 37° C., Nutrient Broth
# Description: as §1
# Str. faecalis A-20688 = assay: MIC, tube dilution, Streptococcus faecalis A20688; type: cell-based; details: overnight 37° C.
# Description: as §1
# Str. pyogenes A-9604 = assay: MIC, tube dilution, Streptococcus pyogenes A9604; type: cell-based; details: overnight 37° C., Nutrient Broth
# Description: as §1
# Proteus rettgeri A21203 = assay: MIC, tube dilution, Proteus rettgeri A21203; type: cell-based; details: Proteus rettgeri A21203, overnight 37° C.
# Description: as §1
# [2] = system: Staph. aureus A-9537 and 50% serum; assay: MIC, tube dilution, Staph. aureus A9537 + 50% serum; type: cell-based, Staphylococcus aureus; details: overnight 37° C.
# Description: as §1
# E. coli A-15119 = assay: MIC, tube dilution, Escherichia coli A15119; type: cell-based; details: overnight 37° C.
# Description: as §1
# [3] = system: Klebsiella species A20468; assay: MIC, tube dilution, Klebsiella species A20468; type: cell-based; details: Klebsiella species (K. pneumoniae) A20468, overnight 37° C.
# Description: as §1
# [4] = system: Staph. aureus (Meth-Res) A-15097; assay: MIC, tube dilution, Staphylococcus aureus A15097 (Meth-Res); type: cell-based; details: overnight 37° C.
# Description: as §1
# Pr. mirabilis A-9900 = assay: MIC, tube dilution, Proteus mirabilis A9900; type: cell-based; details: overnight 37° C.
# Description: as §1
# Staph. aureus A-9537 = assay: MIC, tube dilution, Staphylococcus aureus A9537; type: cell-based; details: overnight 37° C., Nutrient Broth
# Description: as §1
# Proteus vulgaris A9555 = assay: MIC, tube dilution, Proteus vulgaris (mirabilis) A9555; type: cell-based; details: overnight 37° C.
# Description: as §1
# K. pneumoniae A-15130 = assay: MIC, tube dilution, Klebsiella pneumoniae A15130; type: cell-based; details: overnight 37° C.
# Description: as §1
# [5] = read-out: Minimum Inhibitory Concentration (M.I.C.)
structure (smiles),measurement,setting,value
COP(=O)(CCC1=C(C(=O)O)N2C(=O)CC2S1)OC (stereo not shown) [Example 57],Minimum Inhibitory Concentration (M.I.C.),Ser. marcescens A-20019; Serratia marcescens A20019,63 µg/mL
same,Minimum Inhibitory Concentration (M.I.C.),Ps. aeruginosa A-21213,125 µg/mL
same,Minimum Inhibitory Concentration (M.I.C.),[1]; Staph. aureus A9606 (Pen-Res),125 µg/mL
same,Minimum Inhibitory Concentration (M.I.C.),Ent. cloacae A-9659; Enterobacter cloacae A9659,125 µg/mL
same,Minimum Inhibitory Concentration (M.I.C.),Pr. morganii A-15153; Proteus morganii A15153,32 µg/mL
same,Minimum Inhibitory Concentration (M.I.C.),Ent. cloacae A-9656,63 µg/mL
same,Minimum Inhibitory Concentration (M.I.C.),Ps. aeruginosa A-9843A; Pseudomonas aeruginosa A9843A,125 µg/mL
same,Minimum Inhibitory Concentration (M.I.C.),E. coli A-20341-1,> 125 µg/mL
same,Minimum Inhibitory Concentration (M.I.C.),Str. pneumoniae A-9585; Str. pneumoniae A9585,.06 µg/mL
same,Minimum Inhibitory Concentration (M.I.C.),Str. faecalis A-20688; Str. faecalis A20688,125 µg/mL
same,Minimum Inhibitory Concentration (M.I.C.),Str. pyogenes A-9604; Str. pyogenes A9604,.13 µg/mL
same,Minimum Inhibitory Concentration (M.I.C.),Proteus rettgeri A21203,16 µg/mL
same,Minimum Inhibitory Concentration (M.I.C.),[2],16 µg/mL
same,Minimum Inhibitory Concentration (M.I.C.),E. coli A-15119; E. coli A15119,16 µg/mL
same,Minimum Inhibitory Concentration (M.I.C.),[3],> 125 µg/mL
same,Minimum Inhibitory Concentration (M.I.C.),[4]; Staph. aureus A15097 (Meth-Res),> 125 µg/mL
same,Minimum Inhibitory Concentration (M.I.C.),Pr. mirabilis A-9900; Proteus mirabilis A9900,8 µg/mL
same,Minimum Inhibitory Concentration (M.I.C.),Staph. aureus A-9537; Staph. aureus A9537,1 µg/mL
same,Minimum Inhibitory Concentration (M.I.C.),Proteus vulgaris A9555,63 µg/mL
same,Minimum Inhibitory Concentration (M.I.C.),K. pneumoniae A-15130; K. pneumoniae A15130,125 µg/mL
CC(C)OP(=O)(CCC1=C(C(=O)O)N2C(=O)CC2S1)OC(C)C (stereo not shown) [Preparation 54],MIC,"Ser. marcescens A-20019; Serratia marcescens, A20019, Serratia marcescens A20019, read-out: Minimum Inhibitory Concentration (M.I.C.)",125 mg/L
same,MIC,Ps. aeruginosa A-21213; [5],125 mg/L
same,MIC,"[1]; Staphylococcus aureus, read-out: Minimum Inhibitory Concentration (M.I.C.), Staph. aureus A9606 (Pen-Res)",> 125 mg/L
same,MIC,"Ent. cloacae A-9659; Enterobacter cloacae, A9659, Enterobacter cloacae A9659, read-out: Minimum Inhibitory Concentration (M.I.C.)",125 mg/L
same,MIC,"Pr. morganii A-15153; Morganella morganii, A15153, Proteus morganii A15153, read-out: Minimum Inhibitory Concentration (M.I.C.)",125 mg/L
same,MIC,Ent. cloacae A-9656; [5],32 mg/L
same,MIC,"Ps. aeruginosa A-9843A; Pseudomonas aeruginosa, A9843A, read-out: Minimum Inhibitory Concentration (M.I.C.), Pseudomonas aeruginosa A9843A",125 mg/L
same,MIC,"E. coli A-20341-1; Escherichia coli, A203411, read-out: Minimum Inhibitory Concentration (M.I.C.)",32 mg/L
same,MIC,"Str. pneumoniae A-9585; Streptococcus pneumoniae, A9585, Str. pneumoniae A9585, read-out: Minimum Inhibitory Concentration (M.I.C.)",63 mg/L
same,MIC,"Str. faecalis A-20688; Enterococcus faecalis, A20688, Str. faecalis A20688, read-out: Minimum Inhibitory Concentration (M.I.C.)",63 mg/L
same,MIC,"Str. pyogenes A-9604; Streptococcus pyogenes, A9604, Str. pyogenes A9604, read-out: Minimum Inhibitory Concentration (M.I.C.)",125 mg/L
same,MIC,"Proteus rettgeri A21203; Providencia rettgeri, read-out: Minimum Inhibitory Concentration (M.I.C.)",125 mg/L
same,MIC,"[2]; Staphylococcus aureus, read-out: Minimum Inhibitory Concentration (M.I.C.)",32 mg/L
same,MIC,"E. coli A-15119; Escherichia coli, A15119, E. coli A15119, read-out: Minimum Inhibitory Concentration (M.I.C.)",63 mg/L
same,MIC,[3]; [5],63 mg/L
same,MIC,"[4]; Staphylococcus aureus, read-out: Minimum Inhibitory Concentration (M.I.C.), Staph. aureus A15097 (Meth-Res)",63 mg/L
same,MIC,"Pr. mirabilis A-9900; Proteus mirabilis, A9900, Proteus mirabilis A9900, read-out: Minimum Inhibitory Concentration (M.I.C.)",125 mg/L
same,MIC,"Staph. aureus A-9537; Staphylococcus aureus, A9537, Staph. aureus A9537, read-out: Minimum Inhibitory Concentration (M.I.C.)",32 mg/L
same,MIC,Proteus vulgaris A9555; [5],> 125 mg/L
same,MIC,"K. pneumoniae A-15130; Klebsiella pneumoniae, A15130, K. pneumoniae A15130, read-out: Minimum Inhibitory Concentration (M.I.C.)",> 125 mg/L
